Here are results for 43 molecules from PMC9367601 (Cancers, 2022).

Each structure is given as a SMILES string.

This assay concerns the target T1, Epidermal Growth Factor Receptor (EGFR), extracellular domain (EGFR-ECD) (Homo sapiens, UniProt P00533).
T1 construct: full-length EGFR in DiscoverX PathHunter enzyme-complementation cells, EGF-stimulated
In words: cell-based. Also noted: DiscoverX PathHunter EGFR dimerization/activation assay, chemiluminescence. How it is done:
The inhibition of the EGFR dimerization assay was conducted using the PathHunter kit following the producer instructions and with cetuximab as a positive control. For IC50 determination, the selected compounds were tested at different concentration (range 0.1–100 µM) and the IC50 values were calculated by the four parameters logistic (4-PL) model. Evaluation was based on means from at least four independent experiments. The discovery of orally available small molecules able to impair the EGFR activation targeting the extracellular domain could be of great interest for cancer treatment. To pursue this goal, a suitable high/medium throughput screening method is required. In this respect, a commercially available kit (PathHunter® from DiscoverX©; San Francisco, CA, USA) for the screening of compounds able to prevent EGFR activation (either dimerization or autophosphorylation) has been developed in recent years. This assay measures the chemiluminescent signal produced as a consequence of ligand-induced dimerization/activation of EGFR [16]. Our interest in kinase inhibitors and the readily availability of such kit prompted us to start a campaign for the discovery of small molecules targeting the extracellular domain of EGFR.

T1 sequence (P00533 25-1210): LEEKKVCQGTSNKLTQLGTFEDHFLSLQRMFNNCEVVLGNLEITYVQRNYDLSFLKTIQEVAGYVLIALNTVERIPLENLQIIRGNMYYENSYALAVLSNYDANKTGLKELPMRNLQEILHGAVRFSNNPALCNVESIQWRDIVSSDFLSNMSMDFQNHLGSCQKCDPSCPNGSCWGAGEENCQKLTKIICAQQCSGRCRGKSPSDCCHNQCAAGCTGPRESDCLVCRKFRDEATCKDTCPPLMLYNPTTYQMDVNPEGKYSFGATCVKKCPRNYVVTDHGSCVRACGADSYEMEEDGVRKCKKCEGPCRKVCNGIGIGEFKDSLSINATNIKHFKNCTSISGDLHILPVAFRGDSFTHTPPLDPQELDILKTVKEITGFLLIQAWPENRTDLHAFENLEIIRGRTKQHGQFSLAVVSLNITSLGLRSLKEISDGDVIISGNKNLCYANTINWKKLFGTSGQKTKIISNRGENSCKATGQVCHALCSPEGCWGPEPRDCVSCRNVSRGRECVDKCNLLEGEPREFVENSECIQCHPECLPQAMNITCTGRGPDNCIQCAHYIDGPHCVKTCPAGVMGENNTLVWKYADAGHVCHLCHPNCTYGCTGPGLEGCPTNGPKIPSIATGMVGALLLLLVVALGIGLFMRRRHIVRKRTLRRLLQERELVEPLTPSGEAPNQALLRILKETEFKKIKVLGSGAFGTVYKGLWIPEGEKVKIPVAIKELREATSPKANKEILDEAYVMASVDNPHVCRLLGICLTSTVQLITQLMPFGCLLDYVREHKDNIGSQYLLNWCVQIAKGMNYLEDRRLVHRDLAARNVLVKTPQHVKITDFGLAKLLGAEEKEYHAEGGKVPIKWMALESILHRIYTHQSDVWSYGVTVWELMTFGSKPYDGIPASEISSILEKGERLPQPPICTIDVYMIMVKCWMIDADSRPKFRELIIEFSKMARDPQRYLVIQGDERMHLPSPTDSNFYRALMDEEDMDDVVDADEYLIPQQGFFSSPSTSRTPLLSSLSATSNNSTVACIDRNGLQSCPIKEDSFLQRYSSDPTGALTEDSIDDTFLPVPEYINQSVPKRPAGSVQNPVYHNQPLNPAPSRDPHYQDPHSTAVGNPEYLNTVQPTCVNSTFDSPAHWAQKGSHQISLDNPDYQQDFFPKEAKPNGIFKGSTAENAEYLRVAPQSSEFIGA

As to `O=[N+]([O-])c1cc(Cl)ccc1S(=O)(=O)N1CCCCC1` [DSF090], testing at 10 µM gave an inhibition of 12 ± 2% and at 50 µM the inhibition was 19 ± 1%.
Regarding `O=C1c2ccccc2C(=O)c2c(NCCNCCO)ccc(F)c21` [DSF016], at 10 µM the inhibition was 33 ± 5% and 50 µM produced 25 ± 3% inhibition.
The molecule `O=C(NC(=O)c1ccccc1[N+](=O)[O-])Nc1cccc(Oc2ncc(Cl)cn2)c1` [DSF063] gave an inhibition at 10 µM of 0% and an inhibition at 50 µM of 5 ± 5%.
`CC(NC(=O)C(NC(=O)OCc1ccccc1)C(C)C)C(=O)OCCCCCNc1ccc(NCCCCCOC(=O)C(C)NC(=O)C(NC(=O)OCc2ccccc2)C(C)C)c2c1C(=O)c1ccccc1C2=O` (centres unmarked) [DSF012] registered an inhibition at 10 µM of 0% and an inhibition at 50 µM of 20 ± 5%.
For `Nc1ccc2cc3cc(N)ccc3cc2c1` [DSF001], in that order: 0% and 0%.
In turn, `COC(=O)Cc1c(C)c2ccc(O)cc2oc1=O` [DSF042] came in with an inhibition at 10 µM of 0% and an inhibition at 50 µM of 0%.
`O=C(O)COCC(=O)OCc1cc(O)c2c(c1)C(=O)c1cccc(O)c1C2=O` [DSF011] yielded an inhibition at 10 µM of 9 ± 5% and an inhibition at 50 µM of 39 ± 1%.
Molecule `COc1ccc2c(C)c(CC(=O)Nc3ccc(C(=O)O)cc3)c(=O)oc2c1` [DSF043] showed an inhibition at 10 µM of 0% and an inhibition at 50 µM of 0%.
With `Cc1ccc(NC(=O)Nc2ccc(Nc3cc(-c4ccccc4)ncn3)cc2)cc1` [DSF056], the inhibition at 10 µM turned out to be 0% and at 50 µM the inhibition was 22 ± 5%.
In turn, `CC(=O)Nc1ccc(/C=C2/N=C(c3cccnc3Cl)OC2=O)cc1` [DSF078] returned an inhibition at 10 µM of 7 ± 1% and an inhibition at 50 µM of 37 ± 4%.
For the molecule `COc1cccc(Nc2ccc3cc(-c4cccs4)c(=O)oc3n2)c1` [DSF031], the inhibition at 10 µM is 0% and testing at 50 µM gave an inhibition of 19 ± 1%.
Molecule `Cc1c(CCC(=O)Nc2cccc(C(=O)O)c2)c(=O)oc2nc3oc4c(c3cc12)CCCC4` [DSF049] yielded an inhibition at 10 µM of 35 ± 2% and an inhibition at 50 µM of 36 ± 3%.
Molecule `CCOC(=O)c1cc2cnc(O)nc2oc1=O` [DSF040] showed an inhibition at 10 µM of 0% and an inhibition at 50 µM of 0%.
`O=C(O)c1ccc(-c2cc(-c3cccc(C(F)(F)F)c3)ncn2)cc1` [DSF025] registered an inhibition at 10 µM of 6 ± 5% and an inhibition at 50 µM of 34 ± 1%.
For `O=C(NC(=S)Nc1cccc(Oc2ncc(Cl)cn2)c1)c1ccccc1` [DSF062], in that order: 9 ± 3% and 21 ± 2%.
`CS(=O)(=O)Nc1ccc(NC(=O)c2ccc3c(c2)C(=O)c2c(NCCOCCN)ccc(NCCOCCN)c2C3=O)cc1` [DSF009] registered an inhibition at 10 µM of 8 ± 1% and an inhibition at 50 µM of 48 ± 1%.
Turning to `Cc1cccc(C)c1NS(=O)(=O)c1ccc(CC(=O)O)cc1` [DSF082], the “% inhibition @ 10 uM” value (inhibitor, % inhibition @ 10 uM, 10 µM) was 16 ± 1%. In addition, the “% inhibition @ 50 uM” value (inhibitor, % inhibition @ 50 uM, 50 µM) is reported as 19 ± 5%.
Regarding `O=C(O)c1ccc(NS(=O)(=O)c2ccc(Cl)cc2[N+](=O)[O-])cc1O` [DSF085], 10 µM produced 0% inhibition and the inhibition at 50 µM is 36 ± 5%.
Turning to `CCc1cnc(Oc2cccc(NC(=S)NC(=O)c3ccccc3)c2)nc1` [DSF065], the inhibition at 10 µM was 0% and at 50 µM the inhibition was 22 ± 5%.
`Cc1ccc([N+](=O)[O-])cc1Nc1nccc(-c2cccnc2)n1` [DSF059] had an inhibition at 10 µM of 0% and an inhibition at 50 µM of 0%.
`CN1CCN(c2ncnc3oc(=O)c(-c4c(Cl)cccc4Cl)cc23)CC1` [DSF039] came in with an inhibition at 10 µM of 0% and an inhibition at 50 µM of 10 ± 2%.
In turn, `FC(F)(F)c1cccc(-c2cc(-c3ccccc3)ncn2)c1` [DSF026] came in with an inhibition at 10 µM of 0% and an inhibition at 50 µM of 0%.
`O=C(CCN1CCOCC1)Nc1ccc(NC(=O)CCN2CCOCC2)c2c1C(=O)c1ccccc1C2=O` [DSF021]: at 10 µM the inhibition was 16 ± 4% and the inhibition at 50 µM is 30 ± 5%.
`O=C(O)c1cccc2cc3c(C(=O)O)cccc3cc12` [DSF005] gave an inhibition at 10 µM of 0% and an inhibition at 50 µM of 1 ± 4%.
The like results for `COc1ccc(OC)c(/N=C2/C(=O)Nc3ccc(Br)cc32)c1` [DSF070] were, in that order, 20 ± 5% and 41 ± 1%.
In the case of `CC(=O)Nc1ccc(O)c2c1C(=O)c1ccccc1C2=O` [DSF008], the inhibition at 10 µM came to 0% and 50 µM produced 14 ± 2% inhibition.
In turn, `COc1ccc(/C=C2/N=C(c3ccccc3)OC2=O)cc1` [DSF076] showed an inhibition at 10 µM of 25 ± 2% and an inhibition at 50 µM of 18 ± 4%.
`O=C(Nc1ccc(Nc2cc(-c3ccccc3)ncn2)cc1)Nc1ccc(C(=O)O)cc1` [DSF057] registered an inhibition at 10 µM of 17 ± 2% and an inhibition at 50 µM of 44 ± 5%.
`O=C(O)Cc1ccc(/N=C2/C(=O)Nc3ccc(Br)cc32)cc1` [DSF068] displayed an inhibition at 10 µM of 37 ± 5% and an inhibition at 50 µM of 56 ± 4%.
With `O=[N+]([O-])c1cc(Cl)ccc1S(=O)(=O)N1CCOCC1` [DSF089], 10 µM produced 20 ± 5% inhibition and at 50 µM the inhibition was 22 ± 4%.
For the molecule `O=C(NC(=O)c1ccccc1)Nc1cccc(Oc2ncc(Cl)cn2)c1` [DSF061], the inhibition at 10 µM was 20 ± 4% and at 50 µM the inhibition was 1 ± 1%.
The molecule `c1ccc2c(CN3CCOCC3)c3ccccc3c(CN3CCOCC3)c2c1` [DSF006] had an inhibition at 10 µM of 19 ± 1% and an inhibition at 50 µM of 27 ± 4%.
The molecule `Cc1c(CC(=O)Nc2ccc(NS(C)(=O)=O)cc2)c(=O)oc2c(C)c3oc4c(c3cc12)CCCC4` [DSF051] registered an inhibition at 10 µM of 40 ± 1% and an inhibition at 50 µM of 50 ± 1%.
The like results for `COc1cc(/C=C2/N=C(c3ccccc3)OC2=O)ccc1OC(C)=O` [DSF072] were, in that order, 16 ± 4% and 39 ± 2%.
For `Cc1cccc(Nc2ncnc3oc(=O)c(-c4c(Cl)cccc4Cl)cc23)c1` [DSF038], the inhibition at 10 µM amounted to 0% and at 50 µM the inhibition was 24 ± 5%.
The molecule `CCc1cnc(Oc2cccc(NC(=O)NC(=O)c3ccccc3)c2)nc1` [DSF064] gave an inhibition at 10 µM of 0% and an inhibition at 50 µM of 0%.
`O=C(CN1CCOCC1)Nc1ccc(NC(=O)CN2CCOCC2)c2c1C(=O)c1c(O)ccc(O)c1C2=O` [DSF020] returned an inhibition at 10 µM of 33 ± 5% and an inhibition at 50 µM of 29 ± 1%.
`COc1cccc(Nc2nc(O)c3cc(-c4c(Cl)cccc4Cl)c(=O)oc3n2)c1` [DSF034] had an inhibition at 10 µM of 14 ± 2% and an inhibition at 50 µM of 0%.
With `O=c1oc2ncnc(Nc3cccc(-c4ccccc4)c3)c2cc1-c1c(Cl)cccc1Cl` [DSF037], at 10 µM the inhibition was 12 ± 4% and 50 µM produced 40 ± 5% inhibition.
In turn, `COc1cccc(Nc2nc(N(C)C)c3cc(-c4c(Cl)cccc4Cl)c(=O)oc3n2)c1` [DSF033] showed an inhibition at 10 µM of 0% and an inhibition at 50 µM of 12 ± 3%.
As for `Nc1cccc(-c2cc(-c3ccc(C(=O)O)cc3)ncn2)c1` [DSF023], at 10 µM the inhibition was 22 ± 1% and the inhibition at 50 µM was found to be 8 ± 2%.
Consider `CN(C)CCNc1ccc(F)c2c1C(=O)c1ccccc1C2=O` [DSF015], for which the inhibition at 10 µM came out at 39 ± 4% and the inhibition at 50 µM turned out to be 48 ± 1%.
As to `N#CCc1c2ccccc2c(CC#N)c2ccccc12` [DSF004], testing at 10 µM gave an inhibition of 0% and the inhibition at 50 µM came out at 1 ± 1%.

In general, inhibition refers to how much of the control response was suppressed. A low value points to a response near the control.
